# Measurements published in patent US8907076B2, “Mycobacterial peptide deformylase” (Council of Scientific and Industrial Research, priority 2006, dated 2014).
# Target: mPDF (Mycobacterium tuberculosis peptide deformylase) (Mycobacterium tuberculosis, UniProt P9WIJ3)
# Conditions: 500 mM, pre-incubation up to 2 h at 30° C., 70 ng protein/reaction
# Protocol: The ability of mPDF to deformylate methionine was assessed in a spectrophotometric assay following the method described by Groche et al (Groche et al., Biochem. Biophys. Res. Commun. 246 342-346 1998) with slight modification. The assay was carried out in 50 μl reaction volume mPDF protein (usually 70 ng) in 1× assay buffer (100 mM phosphate buffer, pH 7.4 containing 100 μg/ml catalase) was incubated with the substrate (0 to 80 mM of N-formyl-Met-Ala, Sigma, USA) at 30° C. for 30 min. The reaction was terminated by addition of 50 μl of 4% HClO4 and further incubated (37° C. for 2 h) with TNBSA reagent (0.01% in 0.1M NaHCO3 buffer, pH 8.4). Following addition of 10% SDS (250 μl) and 1N HCl (125 μl), the highly chromogenic derivative generated due to reaction of primary amine with TNBSA was measured at 335 nm (Hermanson G, Bioconjugate techniques, Academic press, San Diego, Calif., 1996, pp, 112-113). The values obtained were corrected by subtracting the blank (all ingredients except mPDF enzyme) readings. Standard curves were prepared with known amounts (0-42.8 nmoles) of methionine.
# Sequence of mPDF (Mycobacterium tuberculosis peptide deformylase) (P9WIJ3 whole entry): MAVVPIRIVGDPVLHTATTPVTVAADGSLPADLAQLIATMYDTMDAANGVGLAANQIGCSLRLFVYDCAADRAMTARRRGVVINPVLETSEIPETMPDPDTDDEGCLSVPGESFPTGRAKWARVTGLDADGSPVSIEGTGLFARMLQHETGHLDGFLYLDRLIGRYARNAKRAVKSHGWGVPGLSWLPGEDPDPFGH
smiles,measurement,value
"OO [H2O2, hydrogen peroxide]",effect on the deformylating ability of mPDF compared to the untreated control,did not show any significant effect
